This is an account of results in ChEMBL document CHEMBL3813624, “Discovery of hydroxyl 1,2-diphenylethanamine analogs as potent cholesterol ester transfer protein inhibitors” (Bioorg Med Chem Lett, 2016).

≈ marks a conversion by molar mass, not a printed value. Calls of active or inactive are those of the source. The calls are words filed in the database; no cut-off is given here.

Usually IC50 stands for the concentration that gives 50% inhibition. As usually defined, the solubility is the dissolved amount per volume that the medium holds. Low values mean a poorly soluble substance, high ones a readily soluble substance. The inhibition is the relative decrease from the control value, in per cent. As usually defined, the AUC(0-t) is the area under the concentration-time curve up to a stated or last time point. Low values mean low exposure, high ones high exposure.

The target in data set [1] is T1, Cholesteryl ester transfer protein (Homo sapiens, UniProt P11597).
T1 sequence (P11597 whole entry): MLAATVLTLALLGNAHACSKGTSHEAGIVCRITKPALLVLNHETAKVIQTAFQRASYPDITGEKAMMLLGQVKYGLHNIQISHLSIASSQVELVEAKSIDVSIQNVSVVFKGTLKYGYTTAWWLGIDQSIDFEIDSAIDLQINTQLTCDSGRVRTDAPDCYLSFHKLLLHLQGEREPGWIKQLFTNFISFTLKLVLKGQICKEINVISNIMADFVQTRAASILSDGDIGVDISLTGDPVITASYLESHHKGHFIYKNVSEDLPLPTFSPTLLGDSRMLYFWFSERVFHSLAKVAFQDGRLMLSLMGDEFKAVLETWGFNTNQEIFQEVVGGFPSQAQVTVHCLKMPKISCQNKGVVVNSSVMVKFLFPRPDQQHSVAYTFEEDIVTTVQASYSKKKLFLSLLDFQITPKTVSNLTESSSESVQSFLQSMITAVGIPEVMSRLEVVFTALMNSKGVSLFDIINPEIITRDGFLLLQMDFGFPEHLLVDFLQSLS
Kind of data set: Inhibition of human recombinant CETP assessed as reduction in [3H]cholesteryl ester transfer from [3H]CE-HDL to biotinylated LDL by scintillation proximity assay. (In a scintillation proximity assay essentially only radioactivity close to the scintillant gives light.)

Data set [2] addresses T1, Cholesteryl ester transfer protein. Kind of data set: Inhibition of CETP in human whole plasma assessed as reduction in [3H]cholesteryl ester transfer from [3H]CE-HDL to LDL/VLDL. Type of data set: cell-free.
Data set [3] is described as follows: Aqueous solubility of compound. Type of data set: physicochemical. The following applies: buffer.
Data set [4] in a line: Metabolic stability in human liver microsomes assessed as compound remaining at 3 uM after 10 mins by UV absorbance method. The class given is ADME. To be noted: read-out: Stability. On the technique in general: Liver microsomes are a subcellular fraction often used to study metabolism.
A short description of data set [5]: Metabolic stability in mouse liver microsomes assessed as compound remaining at 3 uM after 10 mins by UV absorbance method. Type of data set: ADME. The following applies: read-out: Stability.
The nature of data set [6]: Metabolic stability in rat liver microsomes assessed as compound remaining at 3 uM after 10 mins by UV absorbance method. The class given is ADME. To be noted: read-out: Stability.
The subject of another data set is Mus musculus. Description: In vivo inhibition of human CETP-mediated [3H]cholesteryl ester transfer in human CETP expressed transgenic mouse coexpressing ApoB-100 at 30 mg/kg, po measured at 2 to 8 hrs post dose. Type of data set: functional, organism-based.
Data set [7] in a line: Plasma concentration in dual transgenic mouse expressing human CETP/ApoB-100 at 30 mg/kg, po measured at 2 hrs post dose. Type of data set: ADME, organism-based.
A short description of data set [8]: Plasma concentration in dual transgenic mouse expressing human CETP/ApoB-100 at 30 mg/kg, po measured at 4 hrs post dose. Type of data set: ADME, organism-based.
Data set [9] is described as follows: Plasma concentration in dual transgenic mouse expressing human CETP/ApoB-100 at 30 mg/kg, po measured at 8 hrs post dose. Type of data set: ADME, organism-based.
Data set [10] is described as follows: AUC (0 to 8 hrs) in dual transgenic mouse plasma expressing human CETP/ApoB-100 at 30 mg/kg, po. The class given is ADME, organism-based. Details: dose 30 mg/kg, time < 8 hr, route oral.
Data set [11] in a line: Ratio of plasma concentration in dual transgenic mouse expressing human CETP/ApoB-100 at 30 mg/kg, po measured at 2 hrs post dose to IC50 for CETP in human whole plasma. To be noted: in vivo. The class given is ADME, organism-based.
Data set [12] in a line: Ratio of plasma concentration in dual transgenic mouse expressing human CETP/ApoB-100 at 30 mg/kg, po measured at 4 hrs post dose to IC50 for CETP in human whole plasma. Type of data set: ADME, organism-based. To be noted: in vivo.
The target in data set [13] is T2, hERG (KCNH2) (Homo sapiens, UniProt Q12809). Description: Inhibition of recombinant human ERG expressed in HEK293 cells assessed as inhibition of peak tail current at 1 uM by patch clamp assay relative to control. The class given is cell-based. To be noted: HEK293 cells expressing recombinant human ERG. Background: In patch-clamp work, channel activity is measured electrically.
T2 sequence (Q12809 whole entry): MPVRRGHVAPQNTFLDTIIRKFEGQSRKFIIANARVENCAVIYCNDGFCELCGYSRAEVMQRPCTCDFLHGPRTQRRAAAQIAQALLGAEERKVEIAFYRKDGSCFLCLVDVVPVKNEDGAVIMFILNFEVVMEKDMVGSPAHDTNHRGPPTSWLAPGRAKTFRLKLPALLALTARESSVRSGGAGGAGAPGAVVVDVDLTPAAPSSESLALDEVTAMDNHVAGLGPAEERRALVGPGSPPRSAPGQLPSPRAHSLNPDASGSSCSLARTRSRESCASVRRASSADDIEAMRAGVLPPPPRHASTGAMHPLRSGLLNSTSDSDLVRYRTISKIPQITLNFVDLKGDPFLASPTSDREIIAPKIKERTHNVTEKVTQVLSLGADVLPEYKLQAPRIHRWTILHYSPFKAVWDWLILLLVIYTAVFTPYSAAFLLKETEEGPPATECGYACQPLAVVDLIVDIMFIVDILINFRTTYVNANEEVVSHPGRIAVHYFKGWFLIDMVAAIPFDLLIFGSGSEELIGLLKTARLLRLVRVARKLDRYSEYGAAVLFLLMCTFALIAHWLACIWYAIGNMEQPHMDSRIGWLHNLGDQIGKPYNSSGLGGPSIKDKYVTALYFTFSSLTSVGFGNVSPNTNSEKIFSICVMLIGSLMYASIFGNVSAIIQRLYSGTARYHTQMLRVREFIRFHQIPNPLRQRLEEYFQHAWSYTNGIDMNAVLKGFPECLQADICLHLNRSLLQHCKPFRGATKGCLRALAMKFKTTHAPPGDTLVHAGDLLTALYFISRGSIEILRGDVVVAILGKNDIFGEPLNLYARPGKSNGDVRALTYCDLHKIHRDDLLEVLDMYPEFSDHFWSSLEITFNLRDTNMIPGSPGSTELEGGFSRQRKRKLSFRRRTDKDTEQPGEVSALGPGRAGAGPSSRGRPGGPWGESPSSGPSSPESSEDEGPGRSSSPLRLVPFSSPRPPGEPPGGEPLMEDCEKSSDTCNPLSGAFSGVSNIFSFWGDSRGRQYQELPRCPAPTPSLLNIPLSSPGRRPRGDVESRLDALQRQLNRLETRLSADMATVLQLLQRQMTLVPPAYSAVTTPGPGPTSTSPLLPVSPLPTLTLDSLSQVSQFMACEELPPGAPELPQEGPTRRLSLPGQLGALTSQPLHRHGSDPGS

In data set [14] the target is T2, hERG (KCNH2). Kind of data set: Inhibition of recombinant human ERG expressed in HEK293 cells assessed as inhibition of peak tail current at 3 uM by patch clamp assay relative to control. The following applies: HEK293 cells expressing recombinant human ERG. The class given is cell-based.
For data set [15], the system named is Oryctolagus cuniculus. Description: Cardiotoxicity in rabbit assessed as QT prolongation up to 10 mg/kg by electrophysiology method. The class given is toxicity, organism-based. To be noted: in vivo.
Data set [16] relates to Oryctolagus cuniculus. Description: Cardiotoxicity in rabbit assessed as changes in QT interval up to 10 mg/kg by electrophysiology method. The class given is toxicity, organism-based. The following applies: in vivo.
Data set [17] concerns Oryctolagus cuniculus. Description: Cardiotoxicity in rabbit assessed as changes in QTcf interval up to 10 mg/kg by electrophysiology method. The class given is toxicity, organism-based. The following applies: in vivo.
Data set [18] has as its system Oryctolagus cuniculus. Description: Cardiotoxicity in rabbit assessed as changes in QTcv interval up to 10 mg/kg by electrophysiology method. The class given is toxicity, organism-based. The following applies: in vivo.
The test system of data set [19] is Oryctolagus cuniculus. Kind of data set: Cardiotoxicity in rabbit assessed as QT prolongation at 30 mg/kg by electrophysiology method. Type of data set: toxicity, organism-based. To be noted: in vivo.
In data set [20] the test system is Oryctolagus cuniculus. Kind of data set: Cardiotoxicity in rabbit assessed as QRS prolongation at 30 mg/kg by electrophysiology method. The class given is toxicity, organism-based. The following applies: in vivo.
Data set [21] has as its target Voltage-gated inwardly rectifying potassium channel KCNH2 (Homo sapiens, UniProt Q12809). Kind of data set: Inhibition of recombinant human ERG flux expressed in HEK293 cells by patch clamp assay. The class given is cell-based.

Voltage-gated inwardly rectifying potassium channel KCNH2, sequence (Q12809 whole entry): as above

On to `CO[C@H](CN[C@@](Cc1ccccc1)(c1cc(F)cc(C(F)(F)F)c1)c1ccc(Cl)cn1)C(F)(F)F`, for which the IC50 came to 253 nM in data set [1] and 48000 nM in data set [2]. The compound further registered a solubility in data set [3] below 1 µg/mL.

In the case of `O=C(N[C@@](Cc1ccccc1)(c1cc(F)cc(C(F)(F)F)c1)c1ccc(Cl)cn1)c1ccc(F)c(C(F)(F)F)c1`, the IC50 was 52 nM in data set [1] and 7000 nM in data set [2]. For the same compound, the remaining at 10 min, 3 µM came out at 93% in [4], 100% in data set [5] and 97% in data set [6]. The solubility in [3] was below 1 µg/mL.

For `OC[C@H](O)CN[C@@](Cc1ccccc1)(c1cc(F)cc(C(F)(F)F)c1)c1ccc(Cl)cn1`, the half-inhibitory concentration (IC50) in data set [1] turned out to be 8530 nM. Also, the solubility in [3] stood at 44 µg/mL (≈ 93.8 µM).

Take `OC[C@@H](O)CN[C@@](Cc1ccccc1)(c1cc(F)cc(C(F)(F)F)c1)c1ccc(Cl)cn1`: the IC50 in [1] stood at 3100 nM; in data set [2] it was 98000 nM. The same compound gave a solubility in data set [3] of 37 µg/mL (≈ 78.9 µM).

Regarding `O[C@H](CN[C@@](Cc1ccccc1)(c1cc(F)cc(OC(F)(F)C(F)F)c1)c1ccc(Cl)cn1)C(F)(F)F`, the figures for the IC50 in data set [1] and in data set [2] were 14 nM and 900 nM, respectively. The remaining at 10 min, 3 µM in data set [4] is 100%; in data set [5] it was 88%; in data set [6] it was 84%. Also, the inhibition result with Mus musculus was “Active”. The compound further came in with a concentration at 2 h in data set [7] of 5200 nM. For the same compound, the concentration at 4 h in data set [8] was 3000 nM. For the same compound, the concentration at 8 h in [9] came to 1300 nM. In addition, in data set [10], the AUC(0-t) at 8 h amounted to 26.9 µM·h. Further, the Ratio in [11] amounted to 5.7; in [12], 3.3. In addition, the inhibition at 1 µM on hERG (KCNH2) [13] is 43%. In addition, the inhibition at 3 µM at hERG (KCNH2) [14] amounted to 87%. In addition, the Activity result in the data set with Oryctolagus cuniculus [15] is listed as “Non-toxic”; in the data set on Oryctolagus cuniculus [16] it was “Non-toxic”; with Oryctolagus cuniculus [17], “Non-toxic”; in the data set on Oryctolagus cuniculus [18], “Non-toxic”; in the data set on Oryctolagus cuniculus [19] it was “Toxic”; in the data set on Oryctolagus cuniculus [20], “Toxic”.

Regarding `CC(C)Oc1cc([C@@](Cc2ccccc2)(NC[C@@H](O)C(F)(F)F)c2cc(F)cc(OC(F)(F)C(F)F)c2)ccc1F`, the IC50 in [1] is 1.8 nM; in data set [2], 55 nM; in [21] it was 21000 nM. Further, the remaining at 10 min, 3 µM in [4] is 83%; in data set [5], 85%; in data set [6] it was 83%.

With `O=C(CN[C@@](Cc1ccccc1)(c1cc(F)cc(C(F)(F)F)c1)c1ccc(Cl)cn1)CC(F)(F)F`, the IC50 in data set [1] is 641 nM; in [2] it was 30000 nM. The compound also displayed a solubility in [3] below 1 µg/mL.

Regarding `OC(CN[C@@](Cc1ccccc1)(c1cc(F)cc(OC(F)(F)C(F)F)c1)c1ccc(Cl)cn1)CC(F)(F)F` (some centres not stated), the IC50 in data set [1] stood at 1.5 nM; in data set [2], 600 nM. For the same compound, the remaining at 10 min, 3 µM in [4] was 100%; in data set [5], 88%; in data set [6], 87%. Also, the concentration at 2 h in data set [7] is 5400 nM. In addition, the concentration at 4 h in data set [8] worked out at 2600 nM. The compound also came in with a concentration at 8 h in data set [9] of 490 nM. For the same compound, the AUC(0-t) at 8 h in data set [10] came out at 18.1 µM·h.
